Entries after “also recorded” stand apart in the source; their conditions may differ. Values belong to the compound of their own block, whether it stands above or below them.
Legend:
HaCaT keratinocytes [1] = test: Melatonin and metabolites in supernatants and cell lysates of UV-irradiated HaCaT keratinocytes (HPLC, LC-MS); assay type: in vitro ADME, human
Method: (§1) Parallel control dishes were incubated with PBS without melatonin.
(§2) Internal standards for HPLC were dissolved in absolute ethanol. […] AFMK was produced as described previously (48).
(§3) Irradiation experiments were performed with a Biorad UV transluminator 2000 (Bio-RAD Laboratories, Hercules, Calif.), calibrated as described previously (37). Briefly, a scanning double monochromator spectroradiometer (Model OL 754, Optronic Laboratories, Orlando, Fla.) was used to scan emission of wavelengths from 250 to 800 nm at 1 nm increments. The spectroradiometer had been calibrated with an NIST traceable tungsten-halogen spectral irradiance standard (Model 75-10E, Optronic Laboratories, Orlando, Fla.) with a precision current source (Model 65, Optronic Laboratories, Orlando, Fla.). An additional calibration module (Model 752-150, Optronic Laboratories, Orlando, Fla.) measured both photometric gain and wavelength accuracy. Wavelength calibration and gain were established or verified before each experimental use. The UV source emission (shown in FIG. 1) consisted primarily of UVB light (wavelength 280-320 nm; 60%), with minor output in the UVA (320-400 nm) and UVC (120-280 nm) range (˜30% and ˜10%, respectively). Melatonin photoproducts generation was performed after irradiation at the UV doses of 25, 50, 75 or 100 mJ/cm^2, as indicated in the figures.
(§4) Aliquots ([…]) of samples from the cell suspension and cell-free experiments were separated on an LC-MS QP8000a (Shimadzu, Japan) equipped with diode array and single quadrupole mass-spectrometric detectors. The separation system consisted of a Restec Allure C18 reverse-phase column (150×4.6 mm; 5 μm particle size; and 60 A pore size) with mobile phase consisting of 25% acetonitrile and 0.1% acetic acid. Elution was carried out isocratically at flow rate of 0.75 ml/min and temperature of 40° C. The eluent was routed to the mass-spectrometric electrospray interface (ESI) set in positive mode and using nitrogen as the nebulizing gas. Mass-spectrometry parameters were as follows: nebulizer gas flow rate, 4.5 l/min; electrospray voltage, 4.5 kV; and curved desolvation line (CDL) heater temperature, 250° C. The selected ion monitoring (SIM) mode was used to detect ions with m/z=249 (monohydroxymelatonin); m/z=265 (dihydroxymelatonin and AFMK); m/z=237 (AMK); and m/z=233 (melatonin). System control and data acquisition were performed with the LC-MS workstation Class-8000 software (Shimadzu, Japan).

[2] = UVR irradiation of melatonin solution in a cell-free system (HPLC, LC-MS); assay type: physicochemical; details: melatonin in PBS, UV-doses of 25, 50 and 100 mJ/cm^2
Method: as §1, §2
as §3, with “Melatonin photoproducts generation was performed after irradiation at the UV doses of 25, 50, 75 or 100 mJ/cm^2, as indicated in the figures.” left out
Peak areas increased linearly with UV-doses (FIG. 2). […] Product identity was determined by comparison with known standards of melatonin metabolites. […]

HaCaT keratinocytes [3] = test: Kinetics of melatonin metabolism in untreated keratinocytes (intracellular levels); assay type: in vitro ADME, human; details: not preincubated with melatonin, no UV; for intracellular level in untreated keratinocytes after 24 hrs: cultivation for 24 hrs
Method: as §1, §4

HaCaT keratinocytes [4] = test: Morphology analysis of keratinocytes after UV irradiation; assay type: cell-based, human; details: melatonin 10^−3 M, 50 mJ/cm^2, 24 hours after irradiation
Method: Cell media from overnight incubation was removed and replaced with fresh media containing melatonin at the concentration of 10^−3 M, the maximum effective concentration identified in previous studies (45, 46). […] Irradiation of the Petri dishes was performed with UVR from below, and after irradiation PBS was replaced by fresh culture media for 24 or 48 hrs. Paraely, cells were incubated with or without melatonin, but not subjected to irradiation to exclude effects of melatonin alone.
Digital pictures from six to ten randomly chosen fields per Petri dish for each experimental condition were acquired at different time points after UV exposure (0, 24 and 48 hrs) with a NIKON Eclipse TE300 microscope (Melville, N.Y.). At 24 and 48 hrs after UV exposure, pictures of detached cells were first taken, then detached cells were removed and another set of pictures was acquired to assess the degree of confluency of cells which were still attached to the bottom of the culture dish. Pictures were recorded and analyzed with MetaVue software. Then, keratinocytes were harvested from Petri dishes by trypsinization, washed three times with ice-cold PBS and frozen in −80° C. until further processing.

HaCaT keratinocytes [5] = test: Mitochondrial membrane potential (ΔΨ) using JC-1, confocal microscopy; assay type: cell-based, human; details: for mitochondrial membrane potential, melatonin alone: melatonin 10−4 M, without UV-exposure
Method: Mitochondrial inner membrane potential (ΔΨ) in immortalized HaCaT keratinocytes was measured by using confocal microscopy with 5,5′,6,6′tetrachloro-1,1′,3,3′-tetraethylbenzimidazol-carbocyanine iodide (JC-1) (Molecular Probes, Carlsbad, Calif.) (66). JC-1 selectively enters mitochondria and aggregates when the membrane potential values exceed 80-100 mV, causing a shift in fluorescence from 530 nm (green) to 590 nm (red). For experiments, human HaCaT keratinocytes were seeded in Lab-Tek II 8-well chambered coverglass (Nalge Nunc, Inc., Naperville, Ill.) and grown until 90-100% of confluence. Culture media were removed and cells washed with PBS and then incubated for 30 or 120 min with melatonin at […]. Stock solution of melatonin was dissolved in DMEM and added to the culture media. After incubation, cells were washed twice with PBS and subjected to irradiation with UVB at the dose of 50 mJ/cm^2 or incubated with serum free medium containing 1 mM H2O2 for 1 h. After irradiation cells were incubated in DMEM containing 5% FBS and supplemented with JC-1 (2.5 μg/ml) for 30 min at 37° C. […] Images were acquired from three to six randomly chosen fields for each experimental condition showing nuclear cross-section. Green and red channels were merged and ratio of red to green channel was shown in blue.
Bands of immunoblots were evaluated by measurement of density with Scion Image analysis software (NIH). Density values from two or three experiments were taken for calculation of mean values and standard deviation. For statistical analysis of mitochondrial membrane potential, images showing nuclear cross-section were acquired from three to six randomly chosen fields -or each experimental condition. Ration of red/green emission was calculated using ImageJ software (NIH, Bethesda, […].) and differences were analysed with Student's t-test and were considered significant when p-value was <0.05.

HaCaT keratinocytes [6] = details: human
HaCaT keratinocytes [7] = details: [3H]-labeled melatonin tracer only; cited from earlier work

intracellular detection (HaCaT keratinocytes [1]; basal conditions and after UVR exposure): not detected intracellularly
SMILES: COc1ccc2[nH]cc(CCNC(C)=O)c2c1O [4-hydroxymelatonin]

photoproducts generated by UV irradiation of melatonin solution [2]: generated four compounds
melatonin level in supernatants after UV exposure, % of nonirradiated melatonin solution (HaCaT keratinocytes [1]; human): 99.7%
intracellular level in untreated keratinocytes, initial (basal) (HaCaT keratinocytes [3]): 146.0 pmoles/1000 cells
intracellular level in untreated keratinocytes after 24 hrs (HaCaT keratinocytes [3]): 65.0 pmoles/1000 cells
intracellular melatonin concentration (HaCaT keratinocytes [6]): approximately 10−6 M
uptake of melatonin into the cell, ratio of intra- to extracellular melatonin (% of applied levels) (HaCaT keratinocytes [6]): 0.125%
SMILES: COc1ccc2[nH]cc(CCNC(C)=O)c2c1 [melatonin]
keratinocyte confluency and empty spaces after UV irradiation (HaCaT keratinocytes [4]): confluency was higher compared to non-treated control and no empty spaces were seen
UV-induced mitochondrial membrane potential reduction, red/green fluorescence ratio (HaCaT keratinocytes [5]; melatonin 10^−3 to 10^−6 M for 30 or 120 min, UVB 50 mJ/cm^2): attenuated by melatonin in a dose dependent manner; also recorded: prevented membrane potential reduction
H2O2-induced reduction of mitochondrial membrane potential (HaCaT keratinocytes [5]; melatonin 10^−4 M, H2O2 1 mM, 60 minutes): significantly counteracted
mitochondrial membrane potential, melatonin alone (HaCaT keratinocytes [5]): no change of mitochondrial membrane potential
mitochondrial membrane potential, melatonin alone (HaCaT keratinocytes [5]; listed as Melatonin): did not influence mitochondrial membrane potential
mitochondrial membrane potential after UVB (JC-1 images) (HaCaT keratinocytes [5]; preincubation with melatonin 10^−4 M, UVB 50 mJ/cm^2): preserved mitochondrial membrane potential
melatonin uptake in HaCaT keratinocytes (Nickel and Wohlrab) (HaCaT keratinocytes [7]): 0.097%

intracellular level in untreated keratinocytes, initial (basal) (HaCaT keratinocytes [3]): 53.4 pmoles/1000 cells
intracellular level in untreated keratinocytes after 24 hrs (HaCaT keratinocytes [3]): 16.8 pmoles/1000 cells
SMILES: COc1cc2c(CCNC(C)=O)c[nH]c2cc1O [6-hydroxymelatonin]

intracellular level in untreated keratinocytes, initial (basal) (HaCaT keratinocytes [3]): 7.8 pmoles/1000 cells
intracellular level in untreated keratinocytes after 24 hrs (HaCaT keratinocytes [3]): 20.4 pmoles/1000 cells
SMILES: COc1ccc2[nH]c(O)c(CCNC(C)=O)c2c1 [2-hydroxymelatonin]

detection of AMK after UVR exposure (HaCaT keratinocytes [1]): could not be detected
SMILES: COc1ccc(N)c(C(=O)CCNC(C)=O)c1 [AMK, N^1-acetyl-5-methoxykynuramine]

relative HPLC peak size of photoproduct [2]: largest peak
AFMK level in supernatants, irradiated vs nonirradiated (HaCaT keratinocytes [1]; cells not preincubated with melatonin): ~13 fold
AFMK level in supernatants, irradiated vs non-irradiated (HaCaT keratinocytes [1]; melatonin preincubation, 50 mJ/cm^2): ~100 fold
AFMK level in cell lysates, irradiated vs nonirradiated (HaCaT keratinocytes [1]; melatonin preincubation, UVR): approximately 3.5 fold
AFMK level in native keratinocytes (lysates), UV-stimulated increase (HaCaT keratinocytes [1]; not preincubated with melatonin): 1.9 fold
intracellular level in untreated keratinocytes, initial (basal) (HaCaT keratinocytes [3]): 17.4 pmoles/1000 cells
intracellular level in untreated keratinocytes after 24 hrs (HaCaT keratinocytes [3]): 33.6 pmoles/1000 cells
SMILES: COc1ccc(NC=O)c(C(=O)CCNC(C)=O)c1 [AFMK, N^1-acetyl-N^2-formyl-5-methoxykynuramine]
time of highest level in supernatants post UV exposure (HaCaT keratinocytes [1]; HaCaT preincubated with 10−3 M melatonin, UVR): 40 min

From patent publication US20070218023A1, “Uses of melatonin in skin” (priority 2006, published 2007)
